# Source: the pKa sets of Baltruschat and Czodrowski (2020)
# Where a SMILES comes first, the peptide text is derived from it.
# Conditions: basic group
row,Compound,pKa
1,O=C1N[C@@H](Cc2cnc[nH]2)C(=O)N[C@H]1Cc1cnc[nH]1,6.54
2,C=Cc1ccncc1,5.62
3,O=C([O-])c1ccccn1,5.32
4,Cn1ncc2c(N)nc(Cl)nc21,2.69
5,CCN(CC)CCCC(C)Nc1cc(C)nc2cc(Cl)ccc12 (stereo unspecified),10.2
6,CN[C@H]1CCCC[C@@H]1O,10.2
7,ClCCN1CCOCC1,6.27
8,CCCCCCCCCCCC[NH2+]CCCN,8.37
9,CCn1c(=O)n(C)c2ccccc21,-3.7
10,Nc1ccc([NH3+])c(N)c1,3.69
11,CN(C)c1ccc(N)cc1,6.37
12,Oc1ccc(Cl)cc1CN1CCCC1,11.7
13,c1ccc2cnccc2c1,5.36
14,CCN(CC)Cc1cc([N+](=O)[O-])c2ccccc2c1[O-],11
15,Brc1ccccn1,0.9
16,CCN1CCC[C@@H]1CNC(=O)c1c(OC)ccc([N+](=O)[O-])c1[O-],9.12
17,Nc1nccc2c1ncn2CCOCP(=O)([O-])[O-],7.87
18,CSc1cc2ccccc2cn1,3.41
19,COc1ccc2c3c1O[C@H]1CCC[C@H]4[C@@H]([C@@H]2O)N(C)CC[C@]314,9.41
20,CCCCCCCCCCCCN(CCO)CC(C)O (stereo unspecified),6.5
21,COC(=O)c1ccccn1,2.21
22,c1cnc2c(c1)CCCC2,6.6

row,Compound,pKa
1,O=C1NCCN1,3.09
2,Cc1cc(N)ccc1CN,9.77
3,C1N2CN3CN1C[NH+](C2)C3,-1.7
4,NCCCN,10.6
5,CCCCCCCCCCCCCCCC[NH+](CCCCCCCCCCCCCCCC)CCn1ccnc1,4
6,c1coc(CNCC[NH2+]Cc2ccco2)c1,5.74
7,CC(=O)Nc1cccnc1,4.44
8,CSc1nc2cncnc2n1C,2.98
9,CN1Cc2c(ccc3c2OCO3)-c2ccc3cc4c(cc3c21)OCO4,2.6
10,CCN(CC)CCSC(C)C,9.32
11,OCNc1nc(NCO)nc(NCO)n1,4.05
12,CCC(=O)C(CC(C)N(C)C)(c1ccccc1)c1ccccc1 (stereo unspecified),8.62
13,CN1CCC[NH+](C)Cc2ccccc2OCCOc2ccccc2C1,7.92
14,O[C@H]1[C@H](O)[C@@H](n2cnc3ccccc32)OC[C@H]1O,4.15
15,COc1ccccn1,3.34
16,CCN(CC)Cc1cccc(C)c1[O-],10.9
17,COc1ccc(C(=O)S)cc1,-4.9
18,[S-]c1ccc2ccccc2n1,10.2
19,NCCN1CCOCC1,9.45
20,NC(Cc1ccncc1)C(=O)[O-] (stereo unspecified),9.22
21,CCOc1ccc2nc3c(c(N4CCOCC4)c2c1)CCC3,7.11
22,CC(Cl)CN (stereo unspecified),8.54

row,Compound,pKa
1,C#CCNc1ccccc1,3.06
2,CC[NH+](CC)CCNc1nc(C)cc(Nc2ccc(Cl)cc2)n1,6.69
3,C#CC(C)Nc1ccccc1 (stereo unspecified),3.25
4,COc1ccc(-c2cc3cnccc3[nH]2)c(OC)c1,8.49
5,CCCCCn1ccnc1,7.12
6,CC(C)CCN,10.9
7,CN(C)Cc1ccccc1CO,8.78
8,Cc1ccc(NC(C)(C)C)cc1,7.3
9,CCC(=O)SCCN(C)C,8.28
10,N#CC(C#N)=NNc1ccc(/N=N/c2ccccc2)cc1,-0.87
11,CCc1cc(C)nnc1C,4.73
12,c1ccc2c(c1)NCCN2,4.84
13,N#Cc1ccc(N)cc1,1.74
14,CC(C)NCC(=O)c1ccc([O-])cc1,9.58
15,Nc1ccc(I)cc1,3.79
16,CC(C)n1nnnc1N,1.91
17,COc1cccc(CN)c1O,8.7
18,Cc1c(Cn2ccnc2)sc2cc(C(=O)[O-])ccc12,6.04
19,[O-]c1ncnc2[nH]cnc12,8.71
20,CC1(C)S[C@H]2C(C(=O)[O-])N=C(CCCC(N)C(=O)[O-])N2C1C(=O)[O-] (stereo partly specified),10.3
21,Cc1ccc(N2CCCC2)cc1,4.69
22,CC(C)(C)Nc1ccccc1,7.15

row,Compound,pKa
1,CC(=O)N(C)c1ccncc1,4.62
2,COc1ccc(C(O)c2ccccc2)cc1 (stereo unspecified),-8
3,Nc1c2ccccc2nc2c1ccc1c([N+](=O)[O-])cccc12,7.1
4,NCC(=O)N1CCC[C@H]1C(=O)[O-] (H-Gly-Pro-OH),8.49
5,Cc1cnc2c(O)cccc2c1C,5.8
6,Nc1ccc2ccc([N+](=O)[O-])cc2c1,3.13
7,[O-]c1nccc2cccnc12,12
8,Nc1nc(N)c2[nH]c(N)[nH+]c2n1,2.41
9,Nc1ncnc2c1ncn2C1CCCCC1,4.19
10,Nc1cccnc1C(=O)[O-],7.18
11,CC1=Nc2ccccc2CO1,4.64
12,Nc1ncnc2ncn([C@H]3O[C@H](CO)[C@@H](O)[C@H]3O)c12,3.9
13,C#C[C@]1(O)C[C@@H](C)N(C)[C@@H]2CCCC[C@H]21,9.53
14,c1ccc(-c2cc3c(-c4ccccc4)ccnc3c3ncccc23)cc1,4.69
15,FC(F)(F)c1nc2ncncc2[nH]1,1
16,[NH3+]CCc1ccncc1,4.98
17,COC1=CC=C2[C@@H]3Cc4ccc(OC)c5c4[C@]2(CCN3C)[C@@H]1O5,8.15
18,O=P([O-])([O-])C(NCc1cccnc1)c1ccccc1[O-] (stereo unspecified),12.2
19,CCCCNCCC#N,8.3
20,CCNCC[Se-],10.9
